The values below come from ChEMBL document CHEMBL1125196, “Design and synthesis of P2-P1'-linked macrocyclic human renin inhibitors” (J Med Chem, 1991).

Some results are limits rather than exact numbers.

In this experiment the target is T1, Renin (Homo sapiens, UniProt P00797).
T1 sequence (P00797 whole entry): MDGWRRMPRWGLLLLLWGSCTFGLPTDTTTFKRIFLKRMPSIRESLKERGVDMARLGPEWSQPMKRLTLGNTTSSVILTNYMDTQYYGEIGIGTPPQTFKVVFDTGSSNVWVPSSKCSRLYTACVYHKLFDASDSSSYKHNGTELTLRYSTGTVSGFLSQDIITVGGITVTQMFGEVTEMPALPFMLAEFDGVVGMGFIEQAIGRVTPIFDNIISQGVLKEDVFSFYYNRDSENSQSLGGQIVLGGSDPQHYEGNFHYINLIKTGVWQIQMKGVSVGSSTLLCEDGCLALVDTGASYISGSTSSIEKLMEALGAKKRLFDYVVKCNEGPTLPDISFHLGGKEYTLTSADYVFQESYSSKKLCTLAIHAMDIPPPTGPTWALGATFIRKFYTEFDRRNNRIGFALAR
The experiment can be described thus: The compound was evaluated in vitro for inhibition of human plasma renin at pH 7.4. Type of experiment: cell-free.

As a reminder, the IC50 is the concentration needed to halve the response being measured. High values mean a need for much substance, low ones inhibition by little substance. In turn, `CC(C)(C)OC(=O)N[C@@H](Cc1ccccc1)C(=O)N[C@H]1CNC(=O)CCCOC(=O)[C@H](O)[C@H](CC2CCCCC2)NC1=O` came in with an IC50 of 9.2 µM.

As for `CC(C)(C)OC(=O)N[C@@H](Cc1ccccc1)C(=O)N[C@H]1CCC(=O)NCCCOC(=O)[C@H](O)[C@H](CC2CCCCC2)NC1=O`, 7 µM corresponded to half-maximal inhibition (IC50). As for `CC(C)(C)OC(=O)N[C@@H](Cc1ccccc1)C(=O)N[C@H]1CCC(=O)NCCC[C@@H](O)[C@H](O)[C@H](CC2CCCCC2)NC1=O`, the IC50 was above 20 µM. As to `CC(C)(C)OC(=O)N[C@@H](Cc1ccccc1)C(=O)N[C@H]1CCC(=O)NCCCC2(OCCO2)[C@H](O)[C@H](CC2CCCCC2)NC1=O`, the IC50 was above 20 µM. `CC(C)(C)OC(=O)N[C@@H](Cc1ccccc1)C(=O)N[C@H]1CCC(=O)NCCOC(=O)[C@H](O)[C@H](CC2CCCCC2)NC1=O` displayed an IC50 of 0.61 µM. `CC(C)(C)OC(=O)N[C@@H](Cc1ccccc1)C(=O)N[C@H]1CCC(=O)NCCC[C@H](O)[C@H](O)[C@H](CC2CCCCC2)NC1=O` had an IC50 of 0.65 µM.

Regarding `CC(C)(C)OC(=O)N[C@@H](Cc1ccccc1)C(=O)N[C@H]1CCC(=O)NCCCC(=O)[C@H](O)[C@H](CC2CCCCC2)NC1=O`, the IC50 worked out at 14 µM. Molecule `CC(C)(C)OC(=O)N[C@@H](Cc1ccccc1)C(=O)N[C@H]1CNC(=O)CCCCOC(=O)[C@H](O)[C@H](CC2CCCCC2)NC1=O` returned an IC50 of 0.59 µM.
